# Reference: patent publication US20050032863A1, “Method of treating or preventing central nervous system disorders with compounds having selectivity for the alpha 3 subunit of the benzodiazepine receptor” (priority 2003, published 2005)
# Columns and labels:
# [1] = system: extracellular serotonin in the striatum of rats; experiment: Microdialysis in the striatum of rats, reversal by flumazenil (Example 6); assay type: in vivo, rat
# Procedure: The day before the experiment, male rats were anaesthetised with chloral hydrate (3.6%, 1 ml/100 g i.p.) and placed in a stereotaxic frame to implant a microdialysis guide cannula (CMA/12, Carnegie Medicine, Sweden). Scalp was incised in the median anterior-posterior direction between lambda and bregma and a small hole was drilled into the skull. The stereotaxic coordinates were AP=+1.0 mm, L=−3.0 mm from bregma and 1.5 mm from the skull surface for the striatum according to the atlas of Paxinos and Watson, (1986) (1). Dental cement (Sinfony(2)) was used to fix the guide cannula and anchor screws to the cranium. During the surgery rectal temperature was maintained at 37° C. using a heating blanket.
# The day before the experiment the microdialysis probe (CMA/12, membrane length 4 mm, Carnegie Medicin, Sweden) was inserted into the striatum through the guide cannula. […] Microvials were stored in a fraction collector (CMA/170) at a temperature of 8° C. until analysed. […]
# Dialysates were directly analysed by reverse-phase high-performance liquid chromatography with electrochemical detection (HPLC-EC). […]
# Therefore data of each animal were expressed as percentages. Data from dialysates before administering the substances were averaged, and the mean set as 100%; all individual values were calculated accordingly.
# [2] = system: female Wistar rats, MK-801-induced stereotypies, hyperactivity and ataxia; experiment: MK-801-induced psychosis-related behaviour and reversibility by flumazenil (Example 7); assay type: in vivo, rat; settings: for effect on other stereotypies when flumazenil is added: 30 mg/kg p.o. + flumazenil 5 mg/kg
# Procedure: Apart from the haloperidol rats which received haloperidol 30 minutes and MK-801 10 minutes prior to the test, the other test groups received haloperidol, ELB139 or vehicle 60 minutes prior to test, saline or flumazenil 20 minutes prior to test and MK-801 10 minutes prior to test.
# The behaviour induced by the NMDA antagonist MK-801 is generally accepted as a rat model of psychosis. MK-801 induces stereotypies, hyperactivity and ataxia in rats after intraperitoneal administration.
# Locomotor activity of the rats is recorded by the MotiTest Apparatus (TSE, Bad Homburg, Germany). The test area consisted of a squared arena (45×45 cm) with protective plexiglass walls (20 cm of height) where rats could freely move. Horizontal movements were recorded by 32 infrared photocells arranged along the bottom of each wall of the arena. Vertical movements (rearings) were recorded by a horizontal row of 32 infrared photocells 12 cm above the floor. The following parameters were measured by the computer program “ActiMot” (TSE, Bad Homburg, Germany): • 1. active time [s] • 2. total distance travelled [m]
# Stereotypies, divided into stereotyped sniffing and other stereotypies, and ataxia are scored by the experimenter every five minutes for one hour (12 intervals) according to the method described by Andiné et al. (1999). The scores of the 12 intervals are added for each parameter.
# The day of experiment the female rats are placed in the laboratory and receive the test compound, the reference substance or vehicle at the appropriate time prior to test. […]
# At the beginning of the test the rats are placed in the centre of the squared arena of the MotiTest apparatus. Behaviour of the rats is recorded for one hour. After each run animals are removed and the boxes thoroughly cleaned and dried.
# [3] = 30 mg/kg p.o. + flumazenil 5 mg/kg i.p., second trial
structure (smiles),measurement,setting,value
"O=C1N=C(N2CCCCC2)CN1c1ccc(Cl)cc1 [ELB139, 1-(4-chlorophenyl)-4-piperidinoimidazolin-2-one]",extracellular serotonin in the striatum compared to mean basal level,[1]; 30 mg/kg i.p.,marked increase
same,increase of extracellular serotonin after flumazenil,"[1]; ELB139 30 mg/kg i.p., flumazenil 10 mg/kg i.p. 40 minutes later",not only reversed but serotonin level even decreases below the mean basal level
same,effect on distance travelled when flumazenil is added,"[2]; 30 mg/kg p.o. + flumazenil 5 mg/kg i.p., all trials and sum",significantly reversed
same,effect on activity when flumazenil is added,"[2]; 30 mg/kg p.o. + flumazenil 5 mg/kg i.p., both tests and sum",significantly reversed
same,effect on stereotyped sniffing when flumazenil is added,"[2]; 30 mg/kg p.o. + flumazenil 5 mg/kg i.p., first trial and sum of both trials",significantly reversed
same,effect on stereotyped sniffing when flumazenil is added,[2]; [3],distinctly antagonised
same,reducing effect on ataxia when flumazenil is added,[2]; [3],reversed
same,reversing effect of flumazenil on the ataxia effect,"[2]; 30 mg/kg p.o. + flumazenil 5 mg/kg i.p., sum of both trials",marginal
same,effect on other stereotypies when flumazenil is added,[2]; first trial,rather amplified
same,effect on other stereotypies when flumazenil is added,[2]; second trial,distinctly reversed
same,effect on other stereotypies when flumazenil is added,[2]; sum of both trials,no change
same,"MK-801-induced increase of the distance travelled, whole time curve","[2]; 30 mg/kg p.o., both tests and sum",significantly reduced
same,MK-801-induced stereotyped sniffing,"[2]; 30 mg/kg p.o., discrete trials and sum of both trials",significantly reversed
same,MK-801-induced other stereotypies,"[2]; 30 mg/kg p.o., first trial",slightly reduced
same,MK-801-induced ataxia,"[2]; 30 mg/kg p.o., first trial (November 2003)",hardly affected
same,"activity induced by MK-801, whole time curve","[2]; 30 mg/kg p.o., first trial and sum of both tests",significantly reduced
same,"activity induced by MK-801, whole time curve","[2]; 30 mg/kg p.o., second trial",distinctly reduced
same,MK-801-induced ataxia,"[2]; 30 mg/kg p.o., second trial (January 2004)",more pronounced but still not significant
same,MK-801-induced other stereotypies,"[2]; 30 mg/kg p.o., second trial and sum of both trials",significantly reversed
same,MK-801-induced ataxia,"[2]; 30 mg/kg p.o., sum of both trials",only a slight reduction
